Structures can show the parent of a compound that is named as a salt. Where two headings read alike, the source gives them in different places.
Test system: Acinetobacter baumannii ATCC 17978
Assay: Antimicrobial susceptibility testing: 90% growth inhibitory concentration (IC90) determination
Type: cell-based
Conditions: 90% growth inhibitory concentration, Acinetobacter baumannii ATCC17978, Iso-Sensitest broth, OD 600 nm over 16h, read-out: ATCC17978 IC90
In short: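 Compounds serially twofold diluted (e.g. 50 to 0.097 μM final) in Iso-Sensitest broth, inoculated at ~5×10^(5) CFU/ml, incubated at 35±2° C. OD600 read every 20 minutes over 16h. IC90 taken as concentration inhibiting 90% of growth during logarithmic phase.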

[1] = Acinetobacter baumannii, ATCC17978, 16 h

| IC90 [1] [nM] | Compound | IC90 [nM] |
| --- | --- | --- |
| – | CCc1cc(Nc2nccn3c(-c4ccc(Oc5ccc(C(=O)NCCN)cn5)c(F)c4F)cnc23)ccc1C(=O)NC [Example 490, N-(2-aminoethyl)-6-[4-[8-[3-ethyl-4-(methylcarbamoyl)anilino]imidazo[1,2-a]pyrazin-3-yl]-2,3-difluoro-phenoxy]pyridine-3-carboxamide; formic acid] | 450 |
| 300 | COc1ccc(-c2cnc3c(Nc4ccc(C(=O)N[C@@H](C)CNC(=N)C(C)C)c(C)c4)nccn23)c(F)c1F [Example 499, 4-[[3-(2,3-difluoro-4-methoxyphenyl)imidazo[1,2-a]pyrazin-8-yl]amino]-2-methyl-#N!-[(2#S!)-1-(2-methylpropanimidoylamino)propan-2-yl]benzamide] | – |
| 310 | C#CCOc1ccc(-c2cnc3c(Nc4ccc(C(=O)NCCCN)c(CC)c4)nccn23)c(F)c1F [Example 394, N-(3-aminopropyl)-4-[[3-(2,3-difluoro-4-prop-2-ynoxy-phenyl)imidazo[1,2-a]pyrazin-8-yl]amino]-2-ethyl-benzamide; formic acid] | – |
| 2500 | Cc1cc(Nc2nccn3c(-c4ccc(Cl)c(F)c4F)cnc23)ccc1C(=O)NCCN [Example 249, N-(2-aminoethyl)-4-[[3-(4-chloro-2,3-difluorophenyl)imidazo[1,2-a]pyrazin-8-yl]amino]-2-methylbenzamide;hydrochlo-ride] | – |
| 280 | CCc1cc(Nc2nccn3c(-c4ccc(OC(F)F)c(F)c4F)cnc23)ccc1C(=O)NCCCCN [Example 94, N-(4-aminobutyl)-4-((3-(4-(difluoromethoxy)-2,3-difluorophenyl)imidazo [1,2-a]pyrazin-8-yl)amino)-2-ethylbenzamide hydrochloride] | – |
| 160 | CCc1cc(Nc2nccn3c(-c4ccc(OCC#N)c(F)c4F)cnc23)ccc1C(=O)NCCNC(=O)[C@@H](N)CCCCN [Example 143, 4-[[3-[4-(cyanomethoxy)-2,3-difluoro-phenyl]imidazo[1,2-a]pyrazin-8-yl]amino]-N-[2-[[(2S)-2,6-diaminohexanoyl]amino]ethyl]-2-ethyl-benzamide formate] | – |
| 2700 | Cc1cc(Nc2nccn3c(-c4ccc(OC(F)F)cc4)cnc23)ccc1C(=O)NC(CO)CN1CCOCC1 (centres unmarked) [Example 251, 4-[[3-[4-(difluoromethoxy)phenyl]im-idazo[1,2-a]pyrazin-8-yl]amino]-N-(1-hydroxy-3-morpholin-4-ylpropan-2-yl)-2-methylbenzamide] | – |
| 290 | CCc1cc(Nc2nccn3c(-c4ccc(Oc5ncccn5)c(F)c4F)cnc23)ccc1C(=O)NCCCNC(=O)C1CCNCC1 [Example 544, N-(3-(4-((3-(2,3-difluoro-4-(pyrimidin-2-yloxy)phenyl)imidazo[1,2-a]pyrazin-8-yl)amino)-2-ethylbenzamido)propyl)piper-idine-4-carboxamide formate] | – |
| 210 | CCc1cc(Nc2nccn3c(-c4ccc(OC)c(F)c4F)cnc23)ccc1C(=O)NCC(=O)NCCO [Example 423, 4-((3-(2,3-difluoro-4-methoxyphenyl)imidazo[1,2-a]pyrazin-8-yl)amino)-2-ethyl-N-(2-((2-hydroxyethyl)amino)-2-oxoethyl)benzamide] | – |
| 2200 | Cc1cc(Nc2nccn3c(-c4ccc(OC(F)F)cc4)cnc23)ccc1C(=O)N(C)CCN1CCOC(C)(C)C1 [Example 255, 4-[[3-[4-(difluoromethoxy)phenyl]im-idazo[1,2-a]pyrazin-8-yl]amino]-N-[2-(2,2-dimethylmorpholin-4-yl)ethyl]-N,2-dimethylbenzamide] | – |
| 740 | CN(CCCSc1nc(=O)c(=O)[nH]n1C)C(=O)c1ccc(Nc2nccn3c(-c4ccc(OCC#N)c(F)c4F)cnc23)cc1Cl [Example 395, 2-chloro-4-((3-(4-(cyanomethoxy)-2,3-difluorophenyl)imidazo[1,2-a]pyrazin-8-yl)amino)-N-methyl-N-(3-((2-methyl-5,6-dioxo-1,2,5,6-tetrahydro-1,2,4-triazin-3-yl)thio)propyl)benzamide] | – |
| 170 | CCc1cc(Nc2nccn3c(-c4ccc(OCC#N)c(F)c4F)cnc23)ccc1C(=O)NCCNC(=O)[C@@H](N)CCCN [Example 140, 4-[[3-[4-(cyanomethoxy)-2,3-difluoro-phenyl]imidazo[1,2-a]pyrazin-8-yl]amino]-N-[2-[[(2S)-2,5-diaminopentanoyl]amino]ethyl]-2-ethyl-benzamide formate] | – |
| 41 | COc1ccc(-c2cnc3c(Nc4ccc(C(=O)NCCCCCN)c(C)c4)nccn23)c(F)c1F [Example 491, N-(5-aminopentyl)-4-((3-(2,3-difluoro-4-methoxyphenyl)imidazo[1,2-a]pyrazin-8-yl)amino)-2-methylbenzamide hydrochloride] | – |
| 110 | CCc1cc(Nc2nccn3c(-c4ccc(OC)c(F)c4F)cnc23)ccc1C(=O)NCCCO[C@@H]1O[C@H](CO)[C@H](O)[C@H](O)[C@H]1N [Example 520, N-[3-[(2R,3R,4R,5R,6R)-3-amino-4,5-dihydroxy-6-(hydroxymethyl)oxan-2-yl]oxypropyl]-4-[[3-(2,3-difluoro-4-methoxyphenyl)imidazo[1,2-a]pyrazin-8-yl]amino]-2-ethylbenzamide;formic acid] | – |
| 80 | CCc1cc(Nc2nccn3c(-c4ccc(OC)c(F)c4F)cnc23)ccc1C(=O)NCCCC(=O)N1CCN[C@H](CO)C1 [Example 161, 4-[[3-(2,3-difluoro-4-methoxy-phenyl)imidazo[1,2-a]pyrazin-8-yl]amino]-2-ethyl-N-[4-[(3S)-3-(hydroxymethyl)piperazin-1-yl]-4-oxo-butyl]benzamide] | – |
| 260 | CCc1cc(Nc2nccn3c(-c4ccc(OC)c(F)c4F)cnc23)ccc1C(=O)NCCNC(=O)[C@@H](N)[C@@H](C)O [Example 393, N-[2-[[(2S,3R)-2-amino-3-hydroxy-butanoyl]amino]ethyl]-4-[[3-(2,3-difluoro-4-methoxy-phenyl)imidazo[1,2-a]pyrazin-8-yl]amino]-2-ethyl-benzamide; formic acid] | – |
| 2400 | Cc1cc(Nc2nccn3c(-c4ccc(OC(F)F)cc4)cnc23)ccc1C(=O)NCCN1CCOCC1=O [Example 247, 4-[[3-[4-(difluoromethoxy)phenyl]im-dazo[1,2-a]pyrazin-8-yl]amino]-2-methyl-N-[2-(3-oxomorpholin-4-yl)ethyl]benzamide] | – |
| 980 | CCc1cc(Nc2nccn3c(-c4ccc(Oc5ccncn5)c(F)c4F)cnc23)ccc1C(=O)N[C@@H](C)CNC(=O)[C@@H](N)CCNC(=N)N [Example 457, N-[(1S)-2-[[(2S)-2-amino-4-guanidino-butanoyl]amino]-1-methyl-ethyl]-4-[[3-(2,3-difluoro-4-pyrimidin-4-yloxy-phenyl)imidazo[1,2-a]pyrazin-8-yl]amino]-2-ethyl-benzamide; formic acid] | – |
| 250 | CCc1cc(Nc2nccn3c(-c4ccc(OC)c(F)c4F)cnc23)ccc1C(=O)NCC(N)CC (centres unmarked) [Example 523, N-(2-aminobutyl)-4-((3-(2,3-difluoro-4-methoxyphenyl)imidazo[1,2-a]pyrazin-8-yl)amino)-2-ethylbenzamide hydrochloride] | – |
| 90 | CCc1cc(Nc2nccn3c(-c4ccc(OC)c(F)c4F)cnc23)ccc1C(=O)NCC1COC1 [Example 291, 4-[[3-(2,3-difluoro-4-methoxyphenyl)imidazo[1,2-a]pyrazin-8-yl]amino]-2-ethyl-N-(oxetan-3-ylmethyl)benzamide] | – |

— US20230012368A1 (Hoffmann-La Roche Inc., priority 2018, published 2023)
